Test results from patent US20090012069A1, “Novel Antidiabetic Compounds” (priority 2004, published 2009).

What was measured:
Swiss albino mice = assay: Serum triglyceride lowering activity in Swiss albino mice; format: in vivo; details: male Swiss albino mice, 10 mg/kg/day orally for 6 days, serum 1 hour after dose on 6th day, fed state
Method: i) Serum Triglyceride and Total Cholesterol Lowering Activity in Swiss Albino Mice:
Male Swiss albino mice (SAM) were bred in Zydus animal house. All these animals were maintained under 12 hour light and dark cycle at 25±1° C. Animals were given standard laboratory chow (NIN, Hyderabad, India) and water ad libitum. SAM of 20-30 g body weight range was used. The protocol approved by Institutional Animal Ethics Committee is being used.
The test compounds were administered orally to Swiss albino mice at 0.001 to 50 mg/kg/day dose for 6 days. The compound was administered after suspending it in 0.25% CMC or dissolving it in water, when compound is water-soluble. Control mice were treated with vehicle (0.25% of Carboxymethyl cellulose; dose 10 ml/kg).
The blood samples were collected on 0th day and in fed state 1 hour after drug administration on 6th day of the treatment. The blood was collected in non heparinised capillary and the serum was analyzed for triglyceride and total cholesterol (Wieland, O. Methods of Enzymatic analysis. Bergermeyer, H., O., Ed., 1963. 211-214; Trinder, P. Ann. Clin. Biochem. 1969. 6: 24-27). Measurement of serum triglyceride and total cholesterol was done using commercial kits (Zydus-Cadila, Pathline, Ahmedabad, India).
(§1) Percentage reduction in triglycerides/total cholesterol were calculated according to the formula:
[formula] • OC=Zero day control group value OT=Zero day treated group value • TC=Test day control group TT=Test day treated group

hPPAR α = target: T1, hPPAR α (Homo sapiens, UniProt Q07869); assay: In vitro hPPAR alpha activity (in-house protocol); format: cell-based; details: read-out: EC50 (PPAR alpha)
T1 sequence (Q07869 1-468): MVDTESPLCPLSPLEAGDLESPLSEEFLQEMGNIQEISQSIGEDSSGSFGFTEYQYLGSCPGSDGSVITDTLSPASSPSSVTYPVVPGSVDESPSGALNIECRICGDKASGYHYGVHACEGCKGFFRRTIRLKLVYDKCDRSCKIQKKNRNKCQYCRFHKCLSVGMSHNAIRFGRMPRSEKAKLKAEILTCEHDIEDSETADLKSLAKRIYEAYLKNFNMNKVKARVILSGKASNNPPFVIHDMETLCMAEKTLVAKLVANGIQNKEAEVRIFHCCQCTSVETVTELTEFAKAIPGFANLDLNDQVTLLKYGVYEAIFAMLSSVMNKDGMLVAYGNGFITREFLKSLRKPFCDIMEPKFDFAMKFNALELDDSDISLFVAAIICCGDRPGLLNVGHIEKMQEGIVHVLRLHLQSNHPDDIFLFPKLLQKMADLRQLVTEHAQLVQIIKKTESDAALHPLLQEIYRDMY
Method: (§2) In vitro hPPAR α & hPPARγ activities were determined as per in-house protocols and the results of representative compounds are provided below as a proof of the efficacies of the novel class of compounds disclosed above.

hPPARγ = target: T2, hPPARγ (Homo sapiens, UniProt P37231); assay: In vitro hPPAR gamma activity (in-house protocol); format: cell-based; details: read-out: EC50 (PPAR gamma)
T2 sequence (P37231 1-505): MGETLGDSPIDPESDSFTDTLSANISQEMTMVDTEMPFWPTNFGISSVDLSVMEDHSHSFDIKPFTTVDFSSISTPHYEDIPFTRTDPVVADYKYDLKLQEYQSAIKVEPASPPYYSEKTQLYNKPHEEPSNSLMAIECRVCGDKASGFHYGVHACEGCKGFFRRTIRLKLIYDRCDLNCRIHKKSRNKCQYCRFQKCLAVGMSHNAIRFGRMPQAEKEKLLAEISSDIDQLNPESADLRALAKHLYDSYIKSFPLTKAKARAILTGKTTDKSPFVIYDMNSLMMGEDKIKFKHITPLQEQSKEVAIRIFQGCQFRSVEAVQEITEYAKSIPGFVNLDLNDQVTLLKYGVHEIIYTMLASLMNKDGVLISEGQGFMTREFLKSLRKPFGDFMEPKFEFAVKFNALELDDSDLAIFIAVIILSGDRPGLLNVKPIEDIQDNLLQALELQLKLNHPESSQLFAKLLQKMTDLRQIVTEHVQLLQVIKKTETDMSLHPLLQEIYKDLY
Method: as §2

[1] = tested on: Hamster of Syrian golden stain; assay: Serum triglyceride lowering activity in HF-HC diet fed Hamster of Syrian golden stain; format: in vivo; details: HF-HC diet hamsters, 3 mg/kg/day oral gavage, non-fasted serum on day 14, 1 hr after dose
From the text: ii) Serum triglyceride and total cholesterol lowering activity in Hamster of Syrian golden stain:
Male and Female Hamster of Syrian golden stain were bred in Zydus animal house. All these animals were maintained under 12-hour light and dark cycle at 22±3 degree C. The protocol approved by Institutional Animal Ethics Committee is being used. Animals of 3-12 weeks age (80-150 gm body weight) were taken for study. Near the end of the acclimatization period, animals judged to be suitable for testing will bee weighed. […] Other animals were put on HF-HC (High fat and high cholesterol) diet for 14 days.
Each animal received a single dose of ZY compounds at 0.001 to 50 mg/kg/ as a carbomethoxy cellulose or polyethylene glycol in the evening administered as an oral gavage daily for 15 days. On day 14, after 1 hr of dose administration, non-fasted blood samples were collected in non heparinized capillary from animals for determination of total cholesterol (TC), triglyceride (TG) (Wieland, O. Methods of Enzymatic analysis. Bergermeyer, H., O., Ed., 1963. 211-214; Trinder, P. Ann. Clin. Biochem. 1969. 6: 24-27). Measurement of serum triglyceride and total cholesterol was done using commercial kits (Pointe Scientific.Inc.USA.) And on day 14 night all animals will be kept for fasting for 12-16 hours. On day 15, after 1 hour of dose administration fasted blood samples will be collected from animals for determination of high density lipoprotein (HDL), and low density lipoprotein (LDL) in serum. The animals will then be euthanized by carbon-dioxide asphyxia (and cervical dislocation, if necessary) and heart, kidney and liver will be resected and weighed.
as §1
Percentage reduction(%)=(TT−TC)/TC*100
TC=Test day control group TT=Test day treated group.

Row | EC50 (hPPAR α) | EC50 (hPPARγ) | Structure (SMILES) | % Triglyceride lowering (Swiss albino mice) | % Triglyceride lowering [1]
1 | – | – | Cc1ccc(-c2nc(CCOc3ccc(C4COC(C)(C(=O)O)OC4)cc3)c(C)o2)cc1 (stereo not drawn) [Example 100, 2-Methyl-5-trans-{4-[2-(5-methyl-2-p-tolyl-oxazol-4-yl)-ethoxy]-phenyl}-[1,3]dioxane-2-carboxylic acid] | 44% | –
2 | 600 nM | 19.8 nM | CC1(C(=O)O)OCC(Cc2ccc(OCCn3ccc4ccccc43)cc2)CO1 (stereo not drawn) [Example 70, 5-cis-[4-(2-Indol-1-yl-ethoxy)-benzyl]-2-methyl-[1,3]dioxane-1-carboxylic acid] | – | –
3 | – | – | CC1(C(=O)O)OCC(c2ccc(OCCOc3ccc(Oc4ccccc4)cc3)cc2)CO1 (stereo not drawn) [Example 106, 2-Methyl-5-cis-{4-[2-(4-phenoxy-phenoxy)-ethoxy]-phenyl}-[1,3]dioxane-2-carboxylic acid] | – | 50%
4 | 1090 nM | 96 nM | Cc1oc(-c2ccccc2)nc1CCOc1ccc(CC2COC(C)(C(=O)O)OC2)cc1 (stereo not drawn) [Example 61, 2-Methyl-5-{4-[2-(5-methyl-2-phenyl-oxazol-4-yl)-ethoxy]-benzyl}-[1,3]dioxane-2-carboxylic acid] | 23% | 30%
5 | – | – | CC1(C(=O)O)OCC(c2ccc(OCCc3ccc(OS(C)(=O)=O)cc3)cc2)CO1 (stereo not drawn) [Example 96, 5-cis-{4-[2-(4-Methanesulfonyloxy-phenyl)-ethoxy]-phenyl}-2-methyl-[1,3]dioxane-2-carboxylic acid] | – | 41%
6 | 72 nM | 15 nM | Cn1c(COc2ccc(CC3COC(C)(C(=O)O)OC3)cc2)nc2ccccc2c1=O (stereo not drawn) [Example 66, 2-Methyl-5-[4-(3-methyl-4-oxo-3,4-dihydro-quinazolin-2-ylmethoxy)-benzyl]-[1,3]dioxane-2-carboxylic acid] | 40% | –
